We go through 2 compounds from PubChem BioAssay AID1259407 (Chemical Carcinogenesis Research Information System (CCRIS), 2018).

This data set relates to CCRIS mutagenicity, Ames/micronucleus/aberration tests. The experiment in a line: CCRIS mutagenicity studies.

Calls of active or inactive are those of the source. The rule behind the calls is not given here.

For the compound `COc1ccccc1O`, the mutagenic call is “active; positive (structural changes)” (End Point: IN VITRO CHROMOSOMAL ABERRATIONS, Test System: SYRIAN HAMSTER EMBRYO (SHE) CELLS, Metabolic Activation: NONE); “inactive; negative” (Test System: AMES SALMONELLA TYPHIMURIUM, Strain/Indicator: TA97, Metabolic Activation: HAMSTER, LIVER, S-9, AROCLOR 1254 (10 OR 30%), Method: VAPOR CHAMBER); “inactive; negative” (Test System: AMES SALMONELLA TYPHIMURIUM, Strain/Indicator: TA97, Metabolic Activation: NONE, Method: VAPOR CHAMBER); “inactive; negative” (Test System: AMES SALMONELLA TYPHIMURIUM, Strain/Indicator: TA97, Metabolic Activation: RAT, LIVER, S-9, AROCLOR 1254 (5, 10 OR 30%), Method: VAPOR CHAMBER); “inactive; negative” (Test System: AMES SALMONELLA TYPHIMURIUM, Strain/Indicator: TA98, Metabolic Activation: HAMSTER, LIVER, S-9, AROCLOR 1254 (10 OR 30%), Method: VAPOR CHAMBER); “inactive; negative” (Test System: AMES SALMONELLA TYPHIMURIUM, Strain/Indicator: TA98, Metabolic Activation: HAMSTER, LIVER, S-9, AROCLOR 1254 (30%), Method: PREINCUBATION). The mutagenic call is “inactive; negative” (Test System: AMES SALMONELLA TYPHIMURIUM, Strain/Indicator: TA98, Metabolic Activation: NONE, Method: PREINCUBATION); “inactive; negative” (Test System: AMES SALMONELLA TYPHIMURIUM, Strain/Indicator: TA98, Metabolic Activation: NONE, Method: VAPOR CHAMBER); “inactive; negative” (Test System: AMES SALMONELLA TYPHIMURIUM, Strain/Indicator: TA98, Metabolic Activation: RAT, LIVER, S-9, AROCLOR 1254 (10 OR 30%), Method: VAPOR CHAMBER); “inactive; negative” (Test System: AMES SALMONELLA TYPHIMURIUM, Strain/Indicator: TA98, Metabolic Activation: RAT, LIVER, S-9, AROCLOR 1254 (30%), Method: PREINCUBATION); “inactive; negative” (Test System: AMES SALMONELLA TYPHIMURIUM, Strain/Indicator: TA98, Metabolic Activation: RAT, LIVER, S-9, AROCLOR 1254, Method: PREINCUBATION); “inactive; negative” (Test System: AMES SALMONELLA TYPHIMURIUM, Strain/Indicator: TA100, Metabolic Activation: HAMSTER, LIVER, S-9, AROCLOR 1254 (5, 10 OR 30%), Method: VAPOR CHAMBER). Also, the mutagenic call is, setting by setting: (Test System: AMES SALMONELLA TYPHIMURIUM, Strain/Indicator: TA100, Metabolic Activation: HAMSTER, LIVER, S-9, AROCLOR 1254 (30%), Method: PREINCUBATION) “inactive; negative”; (Test System: AMES SALMONELLA TYPHIMURIUM, Strain/Indicator: TA100, Metabolic Activation: NONE, Method: PREINCUBATION) “inactive; negative”; (Test System: AMES SALMONELLA TYPHIMURIUM, Strain/Indicator: TA100, Metabolic Activation: NONE, Method: VAPOR CHAMBER) “inactive; negative”; (Test System: AMES SALMONELLA TYPHIMURIUM, Strain/Indicator: TA100, Metabolic Activation: RAT, LIVER, S-9, AROCLOR 1254 (5, 10 OR 30%), Method: VAPOR CHAMBER) “inactive; negative”; (Test System: AMES SALMONELLA TYPHIMURIUM, Strain/Indicator: TA100, Metabolic Activation: RAT, LIVER, S-9, AROCLOR 1254 (30%), Method: PREINCUBATION) “inactive; negative”; (Test System: AMES SALMONELLA TYPHIMURIUM, Strain/Indicator: TA100, Metabolic Activation: RAT, LIVER, S-9, AROCLOR 1254, Method: PREINCUBATION) “inactive; negative”. The mutagenic call reads like this: (Test System: AMES SALMONELLA TYPHIMURIUM, Strain/Indicator: TA102, Metabolic Activation: NONE, Method: PREINCUBATION) “inactive; negative”; (Test System: AMES SALMONELLA TYPHIMURIUM, Strain/Indicator: TA102, Metabolic Activation: RAT, LIVER, S-9, AROCLOR 1254, Method: PREINCUBATION) “inactive; negative”; (Test System: AMES SALMONELLA TYPHIMURIUM, Strain/Indicator: TA1535, Metabolic Activation: HAMSTER, LIVER, S-9, AROCLOR 1254 (10 OR 30%), Method: VAPOR CHAMBER) “inactive; negative”; (Test System: AMES SALMONELLA TYPHIMURIUM, Strain/Indicator: TA1535, Metabolic Activation: NONE, Method: VAPOR CHAMBER) “inactive; negative”; (Test System: AMES SALMONELLA TYPHIMURIUM, Strain/Indicator: TA1535, Metabolic Activation: RAT, LIVER, S-9, AROCLOR 1254 (10 OR 30%), Method: VAPOR CHAMBER) “inactive; negative”.
For `C=C(C)C(=O)OCC(O)COc1ccc(C(C)(C)c2ccc(OCC(O)COC(=O)C(=C)C)cc2)cc1` (configuration not stated), the mutagenic call is “inactive; negative” (Test System: AMES SALMONELLA TYPHIMURIUM, Strain/Indicator: TA97A, Metabolic Activation: NONE, Method: STANDARD PLATE); “inactive; negative” (Test System: AMES SALMONELLA TYPHIMURIUM, Strain/Indicator: TA97A, Metabolic Activation: RAT LIVER S-9, PHENOBARBITAL AND BETA-NAPHTHAFLAVONE, Method: STANDARD PLATE); “inactive; negative” (Test System: AMES SALMONELLA TYPHIMURIUM, Strain/Indicator: TA98, Metabolic Activation: NONE, Method: STANDARD PLATE); “inactive; negative” (Test System: AMES SALMONELLA TYPHIMURIUM, Strain/Indicator: TA98, Metabolic Activation: RAT LIVER S-9, PHENOBARBITAL AND BETA-NAPHTHAFLAVONE, Method: STANDARD PLATE); “inactive; negative” (Test System: AMES SALMONELLA TYPHIMURIUM, Strain/Indicator: TA100, Metabolic Activation: NONE, Method: STANDARD PLATE); “inactive; negative” (Test System: AMES SALMONELLA TYPHIMURIUM, Strain/Indicator: TA100, Metabolic Activation: RAT LIVER S-9, PHENOBARBITAL AND BETA-NAPHTHAFLAVONE, Method: STANDARD PLATE). In addition, the mutagenic call is, setting by setting: (Test System: AMES SALMONELLA TYPHIMURIUM, Strain/Indicator: TA102, Metabolic Activation: NONE, Method: STANDARD PLATE) “inactive; negative”; (Test System: AMES SALMONELLA TYPHIMURIUM, Strain/Indicator: TA102, Metabolic Activation: RAT LIVER S-9, PHENOBARBITAL AND BETA-NAPHTHAFLAVONE, Method: STANDARD PLATE) “inactive; negative”; (Test System: CHINESE HAMSTER OVARY V-79, Strain/Indicator: V79 (HPRT)/6-THIOGUANINE, Metabolic Activation: NONE) “inactive; negative”.
